Columns and labels:
Assay type in all cases: in vivo
Septoria tritici = Septoria tritici test (wheat)/protective; conditions: protective spray, 500 ppm, evaluation 21 days after inoculation
[1] = system: Blumeria graminis f. sp. hordei; assay: Blumeria graminis test (barley)/protective; conditions: protective spray, 500 ppm, evaluation 7 days after inoculation
Experimental: (§1) [table] To produce an appropriate active ingredient formulation, 1 part by weight of active ingredient is mixed with the specified amounts of solvent and emulsifier, and the concentrate is diluted with water to the desired concentration. To test for protective activity, young plants are sprayed with the active ingredient formulation at the stated application rate. After the spray coating has dried on, the plants are dusted with spores of Blumeria graminis f. sp. hordei.

Pyrenophora teres = Pyrenophora teres test (barley)/protective; conditions: protective spray, 500 ppm, evaluation 8 days after inoculation
Experimental: as §1, with “sprayed” for “dusted”, “a spore suspension” for “spores”, “Pyrenophora teres.” for “Blumeria graminis f. sp. hordei.”

Fusarium graminearum = conditions: barley, protective spray, 500 ppm, evaluation 5 days after inoculation
Sphaerotheca fuliginea = assay: Sphaerotheca test (cucumber)/protective; conditions: protective spray, 500 ppm, evaluation 7 days after inoculation
Experimental: (§2) [table] To produce an appropriate active ingredient formulation, 1 part by weight of active ingredient is mixed with the specified amounts of solvent and emulsifier, and the concentrate is diluted with water to the desired concentration. To test for protective activity, young cucumber plants are sprayed with the active ingredient formulation at the stated application rate. 1 day after the treatment, the plants are inoculated with a spore suspension of Sphaerotheca fuliginea. The plants are then placed in a greenhouse at 70% relative air humidity and a temperature of 23° C.

Venturia inaequalis = assay: Venturia test (apple)/protective; conditions: protective spray, 100 ppm, evaluation 10 days after inoculation
Experimental: as §2, with “young” for “young cucumber”, “1 day after the treatment, the plants are inoculated with a spore suspension of Sphaerotheca fuliginea.” left out, “approx. 21° C. and a” for “70%”, “humidity” for “humidity and a temperature”, “approx. 90%.” for “23° C.”

Uromyces appendiculatus = assay: Uromyces test (bean)/protective; conditions: protective spray, 100 ppm, evaluation 10 days after inoculation
Experimental: as §2, with “young” for “young cucumber”, “1 day after the treatment, the plants are inoculated with a spore suspension of Sphaerotheca fuliginea.” left out, “approx. 21° C. and a” for “70%”, “humidity” for “humidity and a temperature”, “approx. 90%.” for “23° C.”

Leptosphaeria nodorum = Leptosphaeria nodorum test (wheat)/protective; conditions: protective spray, 500 ppm, evaluation 8 days after inoculation
Experimental: as §1, with “sprayed” for “dusted”, “spores with a spore suspension” for “spores”, “Leptosphaeria nodorum.” for “Blumeria graminis f. sp. hordei.”

Puccinia recondita [2] = assay: Puccinia test (wheat)/protective; conditions: protective spray, 500 ppm, evaluation 7-9 days after inoculation
Botrytis cinerea = assay: Botrytis test (bean)/protective; conditions: protective spray, 250 ppm, evaluation 2 days after inoculation
Experimental: as §1, with “2 small pieces of agar colonized by Botrytis cinerea” for “the plants”, “placed onto each leaf.” for “dusted with spores of Blumeria graminis f. sp. hordei.”

Pyricularia oryzae = conditions: rice, protective spray, 250 ppm, evaluation 5 days after inoculation
Phakopsora pachyrhizi = assay: Phakopsora test (soya beans)/protective; conditions: protective spray, 100 ppm, evaluation 1 days after inoculation (so in the source)
Puccinia recondita [3] = assay: Puccinia test (wheat)/seed treatment; conditions: dose 50 g/dt (rate 100 [sic]), inoculated 14 days after sowing, evaluated 9 days later, infected leaf area
Experimental: The test was conducted under greenhouse conditions. Wheat seeds treated with an inventive active compound or a combination of inventive active compounds were sown in 6×6 cm vessels, into a mixture of steamed field soil and sand (1:1). The test compound(s) were dissolved in N-methyl-2-pyrrolidone and diluted to the desired concentration with water. The wheat grains treated were sown and placed in a greenhouse at 10° C. 14 days after sowing, the plants were inoculated with a spore suspension of Puccinia recondita. The plants were incubated at 20° C. for a further 9 days. […] In this test, the following inventive compounds show an efficiency of 70% or higher at a dose of 50 g/dt: […]

Fusarium culmorum = assay: Fusarium test (wheat)/seed treatment; conditions: dose 50 g/dt (rate 100 [sic]), 14 days at 20° C., counting emerged plants
Experimental: The test was conducted under greenhouse conditions. Wheat seeds treated with an inventive active compound or a combination of inventive active compounds were sown in 6×6 cm vessels, into a mixture of steamed field soil and sand (1:1). The test compound(s) were dissolved in N-methyl-2-pyrrolidone and diluted to the desired concentration with water. Wheat kernels were inoculated with spores of Fusarium culmorum. The infected and ground kernels were distributed between the treated wheat seeds. The seeds were covered with a top layer of clay granules and incubated in a greenhouse at 20° C. for 14 days. Evaluation was effected by counting the plants which emerged. 0% means an efficacy which corresponds to that of the untreated control, whereas an efficacy of 100% means that all seeds have germinated. In this test, the following inventive compounds show an efficiency of 70% or higher at a dose of 50 g/dt.: […]

Microdochium nivale = assay: Microdochium test (wheat)/seed treatment; conditions: dose 50 g/dt (rate 100 [sic]), 21 days at 10° C., counting emerged plants
Experimental: The test was conducted under greenhouse conditions. Wheat seeds treated with an inventive active compound or a combination of inventive active compounds were sown in 6×6 cm vessels, into a mixture of steamed field soil and sand (1:1). The test compound(s) were dissolved in N-methyl-2-pyrrolidone and diluted to the desired concentration with water. Wheat kernels were inoculated with spores of Microdochium nivale. The infected and ground kernels were distributed between the treated wheat seeds. The seeds were covered with a top layer of steamed field soil and sand (1:1) and incubated in a greenhouse at 10° C. for 21 days. […] In this test, the following inventive compounds show an efficiency of 70% or higher at a dose of 50 g/dt.

Cochliobolus miyabeanus = assay: Cochliobolus test (rice)/protective; conditions: protective spray, 250 ppm, evaluation 4 days after inoculation
Leptosphaeria maculans = assay: Leptosphaeria test (oilseed rape)/seed treatment; conditions: dose 50 g/dt (rate 100 [sic]), 14 days at 10° C. and 7 days at 18° C., counting emerged plants
Experimental: The test was conducted under greenhouse conditions. […] treated with an inventive active compound or a combination of inventive active compounds were sown in 6×6 cm vessels, into a mixture of steamed field soil and sand (1:1). The test compound(s) were dissolved in N-methyl-2-pyrrolidone and diluted to the desired concentration with water. Perlite was inoculated with spores of Leptosphaeria maculans. The infected perlite was distributed between the treated […]. The seeds were covered with a top layer of steamed field soil and sand (1:1) and incubated in a greenhouse at 10° C. for 14 days and at 18° C. for 7 days. […] In this test, the following inventive compounds show an efficiency of 70% or higher at a dose of 50 g/dt.: […]

Rhizoctonia solani = assay: Rhizoctonia test (cotton)/seed treatment; conditions: dose 50 g/dt (rate 100 [sic]), 7 days at 20° C., counting emerged and diseased plants
Experimental: The test was conducted under greenhouse conditions. Cottonseeds treated with an inventive active compound or a combination of inventive active compounds were sown in 6×6 cm vessels, into a mixture of steamed field soil and sand (1:1). The test compound(s) were dissolved in N-methyl-2-pyrrolidone and diluted to the desired concentration with water. Perlite was inoculated with spores of Rhizoctonia solani. The infected perlite was distributed between the treated cottonseeds. The seeds were covered with a top layer of clay granules and incubated in a greenhouse at 20° C. for 7 days. […] In this test, the following inventive compounds show an efficiency of 70% or higher at a dose of 50 g/dt: […]

| SMILES | Efficacy (%) (Septoria tritici) | Efficacy (%) [1] | Efficacy (%) (Pyrenophora teres) | Efficacy (%) (Fusarium graminearum) | Efficacy (%) (Sphaerotheca fuliginea) | Efficacy (%) (Venturia inaequalis) | Efficacy (%) (Uromyces appendiculatus) | Efficacy (%) (Leptosphaeria nodorum) | Efficacy (%) (Puccinia recondita [2]) | Efficacy (%) (Botrytis cinerea) | Efficacy (%) (Pyricularia oryzae) | Efficacy (%) (Phakopsora pachyrhizi) | Efficacy (%) (Puccinia recondita [3]) | Efficacy (%) (Fusarium culmorum) | Efficacy (%) (Microdochium nivale) | efficacy (Cochliobolus miyabeanus) | Efficacy (%) (Leptosphaeria maculans) | Efficacy (%) (Rhizoctonia solani) |
| --- | --- | --- | --- | --- | --- | --- | --- | --- | --- | --- | --- | --- | --- | --- | --- | --- | --- | --- |
| OC(Cc1ccccc1Cl)(Cn1ncnc1I)C1(F)CC1 (stereo not shown) [Compound 13] | 100% | 100% | 100% | 100% | 100% | 99% | 100% | 86% |  |  |  |  |  |  |  |  |  |  |
| Fc1ccc(C2(Cn3ncnc3I)OC2c2ccccc2Cl)cc1 (stereo not shown) [Compound 1] | 100% | 100% | 78% | 75% | 100% | 97% | 97% | 100% | 100% | 73% |  |  |  |  |  |  |  |  |
| OC(Cn1ncnc1I)(c1ccc(F)cc1F)C1(Oc2ccccc2Cl)CC1 (stereo not shown) [Compound 11] |  |  |  |  | 100% |  |  |  | 94% |  | 93% |  |  |  |  |  |  |  |
| OC(Cn1ncnc1I)(c1ccc(Cl)cc1)C1(Oc2ccccc2F)CC1 (stereo not shown) [Compound 7] |  |  |  |  | 100% | 100% | 100% |  | 100% |  |  | 98% |  |  |  |  |  |  |
| OC(Cn1ncnc1I)(c1ccc(F)cc1F)C1(Oc2ccc(F)cc2)CC1 (stereo not shown) [Compound 10] |  |  |  |  | 100% | 100% | 100% |  | 100% |  | 97% | 98% |  |  |  |  |  |  |
| OC(Cc1ccccc1Cl)(Cn1ncnc1I)C1(Cl)CC1 (stereo not shown) [Compound 3] | 88% | 100% | 100% | 100% | 100% | 100% | 100% | 100% | 100% | 100% | 94% | 98% | 100% | 100% | 100% | ≥ 98% | 100% | 100% |
| CC1COC(Cn2ncnc2I)(c2ccc(Oc3ccc(Cl)cc3)cc2Cl)O1 (mixture of isomers) [Compound 8] |  | 100% | 88% |  | 100% | 100% | 100% | 94% | 100% |  |  | 98% |  |  |  |  |  |  |
| CC(C)(C)C(O)(CCc1ccc(Cl)cc1)Cn1ncnc1I (stereo not shown) [Compound 2] |  | 100% | 94% | 100% | 100% | 100% | 100% | 100% | 100% | 90% |  |  |  |  |  |  |  |  |
| CC(C)(C)C(O)(COc1ccc(Cl)cc1)Cn1ncnc1I (stereo not shown) [Compound 18] | 100% | 100% | 93% |  | 100% | 100% | 100% | 100% | 100% |  |  |  |  |  |  |  |  |  |
| OC(Cn1ncnc1I)(c1ccc(Br)cc1)C1(Oc2ccc(F)cc2)CC1 (stereo not shown) [Compound 6] |  |  |  |  | 100% |  |  |  | 100% |  |  |  |  |  |  |  |  |  |
| Fc1cccc(C2(Cn3ncnc3I)OC2c2ccccc2Cl)c1 (stereo not shown) [Compound 16] |  |  |  |  | 100% |  |  |  | 90% |  |  |  |  |  |  |  |  |  |
| OC(Cc1ccc(F)cc1)(Cn1ncnc1I)C1(Cl)CC1 (stereo not shown) [Compound 4] | 100% | 100% | 100% | 100% | 100% | 100% | 100% | 93% | 100% | 89% | ≥ 80% |  |  |  |  | ≥ 80% |  |  |
| OC(Cn1ncnc1I)(c1ccc(Br)cc1)C1(Oc2ccccc2)CC1 (stereo not shown) [Compound 9] |  |  |  |  | 100% | 100% | 100% |  | 100% |  |  |  |  |  |  |  |  |  |
| CC(C1CC1)C(O)(Cn1ncnc1I)c1ccc(Cl)cc1 (stereo not shown) [Compound 17] |  |  |  |  | 95% |  |  |  | 89% |  |  |  |  |  |  |  |  |  |
